For assay [1], the target named is T1, SOS1 catalytic domain (residues 564-1049) (Homo sapiens, UniProt Q07889).
T1 sequence (Q07889 564-1049): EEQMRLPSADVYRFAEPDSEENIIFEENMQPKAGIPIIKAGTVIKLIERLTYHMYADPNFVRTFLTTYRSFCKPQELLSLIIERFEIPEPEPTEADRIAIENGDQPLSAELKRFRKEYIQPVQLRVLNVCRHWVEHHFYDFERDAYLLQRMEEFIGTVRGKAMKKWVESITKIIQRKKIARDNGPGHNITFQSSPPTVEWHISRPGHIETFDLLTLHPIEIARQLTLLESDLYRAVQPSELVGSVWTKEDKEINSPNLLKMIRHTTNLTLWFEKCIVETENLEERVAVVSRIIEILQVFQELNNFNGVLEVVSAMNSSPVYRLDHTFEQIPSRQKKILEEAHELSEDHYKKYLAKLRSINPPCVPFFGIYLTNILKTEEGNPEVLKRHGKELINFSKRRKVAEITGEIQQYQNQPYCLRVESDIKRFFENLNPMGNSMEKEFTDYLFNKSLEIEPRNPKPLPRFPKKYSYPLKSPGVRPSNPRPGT
As to the kind of experiment: Potency Assay: binding affinity to SOS1 using Surface Plasmon Resonance (SPR). Also noted: SOS1 catalytic domain (residues 564-1049) immobilized on a sensor chip. The conditions noted are these: immobilized SOS1 catalytic domain (residues 564-1049), read-out: SOS1 SPR Equilibrium Kd. Summed up:
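Avi-tagged SOS1 catalytic domain captured on streptavidin chip (~6000 RU) in 0.01 M HEPES, 0.15 M NaCl, 0.05% P20. Compound dilution series flowed at 50 μL/min for association, then buffer for dissociation, with double reference subtraction. Kd derived from end-of-association binding response plotted against concentration.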

Assay [2] has as its target T1, SOS1 catalytic domain (residues 564-1049). As to the kind of experiment: Mode of Action Assay: inhibition of SOS1 nucleotide exchange activity (SOS1 TR-FRET IC50 Assay).
Assay [3] has as its system PC-9 cells (EGFR Ex19Del). As to the kind of experiment: Potency Assay: pERK (SOS1 pERK IC50 Assay, AlphaLISA SureFire Ultra p-ERK1/2). In kind it is cell-based. The conditions noted are these: Homo sapiens, read-out: SOS1 pERK IC50. Summed up:
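PC-9 (EGFR Ex19Del) cells plated overnight, then treated 1 h at 37° C. with 10-point 3-fold dilutions (top 10 μM final) in duplicate. Lysate pERK1/2 measured by AlphaLISA SureFire Ultra; IC50 from 4-parameter sigmoidal fit.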
(Alpha assays give light when donor and acceptor beads are brought close together.)

Where [4] appears, read: PC-9 cells (EGFR Ex19Del), 1 hour incubation, AlphaLISA p-ERK1/2.

Structures are written as SMILES. Structures can show the parent of a compound that is named as a salt. Where two headings read alike, the source gives them in different places. Where only a bound is given, the exact number is not on record here.

A word on the Kd: it is the concentration at which binding is half-saturated. The term IC50 denotes the concentration at which inhibition is half-maximal. Turning to `C[C@@H](Nc1nc(Cl)nc2c1CN(C(=O)N1CCOCC1)C2)c1cccc(C(F)(F)CN(C)C)c1` [Example 483, 2-chloro-N-[(1R)-1-{3-[2-(dimethylamino)-1,1-difluoroethyl]phenyl}ethyl]-6-(morpholine-4-carbonyl)-5H,6H,7H-pyrrolo[3,4-d]pyrimidin-4-amine], the Kd in assay [1] is less than 0.4 µM. Also, the IC50 in assay [2] is less than 1 µM; in assay [3] (setting [4]), greater than 1 µM.

`C[C@@H](Nc1nc(Cl)nc2c1CN(C(=O)N1CCOCC1)C2)c1cccc(C(F)(F)C2CNCCO2)c1` (stereo partly drawn) [Example 484, 2-chloro-N-[(1R)-1-{3-[difluoro(morpholin-2-yl)methyl]phenyl}ethyl]-6-(morpholine-4-carbonyl)-5H,6H,7H-pyrrolo[3,4-d]pyrimidin-4-amine]: in assay [1], the Kd is less than 0.4 µM. For the same compound, the IC50 was less than 1 µM in assay [2] and less than 1 µM in assay [3] (PC-9, 1 h).

For `C[C@@H](Nc1nc(Cl)nc2c1CN(C(=O)N1CCOCC1)C2)c1cccc(C(F)(F)C2CN(C)CCO2)c1` (stereo partly drawn) [Example 485, 2-chloro-N-[(1R)-1-{3-[difluoro(4-methylmorpholin-2-yl)methyl]phenyl}ethyl]-6-(morpholine-4-carbonyl)-5H,6H,7H-pyrrolo[3,4-d]pyrimidin-4-amine], in assay [1], the Kd is less than 0.4 µM. Besides, the IC50 in assay [2] and in assay [3] (setting [4]) was less than 1 µM in each case.

In the case of `C[C@@H](Nc1nc(Cl)nc2c1CN(C(=O)N1CCOCC1)C2)c1cccc(C(F)F)c1` [Example 486, 2-chloro-N-[(1R)-1-[3-(difluoromethyl)phenyl]ethyl]-6-(morpholine-4-carbonyl)-5H,6H,7H-pyrrolo[3,4-d]pyrimidin-4-amine], in assay [1], the Kd is less than 0.4 µM. For the same compound, the IC50 in assay [2] is less than 1 µM; in assay [3] (setting [4]), greater than 1 µM.

As for `COC1(C(=O)N2Cc3nc(Cl)nc(N[C@H](C)c4cccc(C(F)F)c4F)c3C2)COC1` [Example 489], the Kd in assay [1] was less than 0.4 µM. The IC50 in assay [2] and in assay [3] (setting [4]) was less than 1 µM in each case.

Regarding `COC1(C(=O)N2Cc3nc(Cl)nc(N[C@H](C)c4cccc5c4OCC5(F)F)c3C2)CCOCC1` [Example 490], in assay [1], the Kd is less than 0.4 µM. The IC50 in assay [2] and in assay [3] (setting [4]) was less than 1 µM throughout.

Turning to `C[C@@H](Nc1nc(Cl)nc2c1CN(C(=O)N1CCOCC1)C2)c1cccc(C(F)(F)C2CCCO2)c1` (stereo partly drawn) [Example 491], the Kd in assay [1] is less than 0.4 µM. Also, the IC50 in assay [2] and in assay [3] (setting [4]) was less than 1 µM throughout.

Consider `Cc1c(C(F)F)cccc1[C@@H](C)Nc1nc(Cl)nc2c1CN(C(=O)N1CCOCC1)C2` [Example 492], for which the Kd in assay [1] is less than 0.4 µM. Further, the half-maximal inhibitory concentration (IC50) in assay [2] and in assay [3] (setting [4]) was less than 1 µM throughout.

`C[C@@H](Nc1nc(Cl)nc2c1CN(C(=O)N1CCOCC1)C2)c1cccc(C(F)(F)C(C)(C)O)c1F` [Example 493]: in assay [1], the Kd is less than 0.4 µM. Also, the IC50 in assay [2] and in assay [3] (setting [4]) was less than 1 µM throughout.

In the case of `C[C@@H](Nc1nc(Cl)nc2c1CN(C(=O)N1CCOCC1)C2)c1cccc(C(F)(F)F)c1F` [Example 496], the Kd in assay [1] is greater than 0.4 µM. Besides, the IC50 in assay [2] and in assay [3] (setting [4]) was less than 1 µM throughout.

For the compound `C[C@@H](Nc1nc(CN2CCOCC2)nc2c1CN(C(=O)N1CCOCC1)C2)c1cc(N)cc(C(F)(F)F)c1` [Example 504, N-[(1R)-1-[3-amino-5-(trifluoromethyl)phenyl]ethyl]-2-[(morpholin-4-yl)-methyl]-6-(morpholine-4-carbonyl)-5H,6H,7H-pyrrolo[3,4-d]pyrimidin-4-amine], the Kd in assay [1] was greater than 0.4 µM. Further, the IC50 in assay [2] is less than 1 µM; in assay [3] (setting [4]), greater than 1 µM.

`CNc1nc2c(c(N[C@H](C)c3cccc(C(F)F)c3F)n1)CN(C(=O)N1CCOCC1)C2` [Example 505, N4-[(1R)-1-[3-(difluoromethyl)-2-fluorophenyl]ethyl]-N2-methyl-6-(morpholine-4-carbonyl)-5H,6H,7H-pyrrolo[3,4-d]pyrimidine-2,4-diamine]: the dissociation constant (Kd) in assay [1] was greater than 0.4 µM. The IC50 in assay [2] and in assay [3] (setting [4]) was greater than 1 µM each time.

For the compound `Cc1c(C(C)Nc2nc(Cl)nc3c2CN(C(=O)N2CCOCC2)C3)cccc1C(F)(F)CO` (stereo not drawn) [Example 507, 2-[3-(1-{[2-chloro-6-(morpholine-4-carbonyl)-5H,6H,7H-pyrrolo[3,4-d]pyrimidin-4-yl]amino}ethyl)-2-methylphenyl]-2,2-difluoroethan-1-ol], in assay [1], the Kd is less than 0.4 µM. Further, the IC50 in assay [2] was less than 1 µM; in assay [3] (setting [4]), greater than 1 µM.

On to `C[C@@H](Nc1nc(CNC2CC2)nc2c1CN(C(=O)N1CCOCC1)C2)c1cccc(C(F)F)c1F` [Example 508, 2-[(cyclopropylamino)methyl]-N-{1-[3-(difluoromethyl)-2-fluorophenyl]ethyl}-6-(morpholine-4-carbonyl)-5H,6H,7H-pyrrolo[3,4-d]pyrimidin-4-amine], for which, in assay [1], the Kd was less than 0.4 µM. In addition, the IC50 was less than 1 µM in assay [2] and greater than 1 µM in assay [3] (setting [4]).

Take `COC1(C(=O)N2Cc3nc(C(N)=O)nc(N[C@H](C)c4cccc(C(F)F)c4F)c3C2)CCOCC1` [Example 510, 4-{[(1R)-1-[3-(difluoromethyl)-2-fluorophenyl]ethyl]-amino}-6-(4-methoxyoxane-4-carbonyl)-5H,6H,7H-pyrrolo[3,4-d]pyrimidine-2-carboxamide]: the Kd in assay [1] is less than 0.4 µM. Moreover, the figures for the IC50 in assay [2] and in assay [3] (setting [4]) were less than 1 µM and greater than 1 µM, respectively.

For `C[C@@H](Nc1nc(Cl)nc2c1CN(C(=O)N1CCOCC1)C2)c1cccc(C(F)F)c1Cl` [Example 522, 2-chloro-N-[(1R)-1-[2-chloro-3-(difluoromethyl)phenyl]ethyl]-6-(morpholine-4-carbonyl)-5H,6H,7H-pyrrolo[3,4-d]pyrimidin-4-amine], the Kd in assay [1] was less than 0.4 µM. For the same compound, the IC50 is less than 1 µM in assay [2] and less than 1 µM in assay [3] (PC-9, 1 h).

For the compound `C[C@@H](Nc1nc(Cl)nc2c1CN(C(=O)N1CCOCC1)C2)c1cccc2c1COCC2(F)F` [Example 523, 2-chloro-N-[(1R)-1-(4,4-difluoro-3,4-dihydro-1H-2-benzopyran-8-yl)ethyl]-6-(morpholine-4-carbonyl)-5H,6H,7H-pyrrolo[3,4-d]pyrimidin-4-amine], in assay [1], the Kd is less than 0.4 µM. Further, the IC50 in assay [2] is less than 1 µM; in assay [3] (PC-9, 1 h), less than 1 µM.

Take `COC1(C(=O)N2Cc3nc(Cl)nc(N[C@H](C)c4cccc(C(F)(F)CN)c4)c3C2)CCOCC1` [Example 525, N-[(1R)-1-[3-(2-amino-1,1-difluoroethyl)phenyl]ethyl]-2-chloro-6-(4-methoxyoxane-4-carbonyl)-5H,6H,7H-pyrrolo[3,4-d]pyrimidin-4-amine]: in assay [1], the Kd is less than 0.4 µM. Moreover, the IC50 in assay [2] and in assay [3] (setting [4]) was less than 1 µM each time.

With `COC1(C(=O)N2Cc3nc(Cl)nc(N[C@H](C)c4cccc(C(F)(F)CN)c4F)c3C2)CCOCC1` [Example 526, N-[(1R)-1-[3-(2-amino-1,1-difluoroethyl)-2-fluorophenyl]ethyl]-2-chloro-6-(4-methoxyoxane-4-carbonyl)-5H,6H,7H-pyrrolo[3,4-d]pyrimidin-4-amine], in assay [1], the Kd is less than 0.4 µM. Moreover, the IC50 in assay [2] and in assay [3] (setting [4]) was less than 1 µM in each case.

Turning to `C[C@@H](Nc1nc(Cl)nc2c1CN(C(=O)N1CCOCC1)C2)c1cccc(CF)c1F` [Example 527, 2-chloro-N-[(1R)-1-[2-fluoro-3-(fluoromethyl)phenyl]ethyl]-6-(morpholine-4-carbonyl)-5H,6H,7H-pyrrolo[3,4-d]pyrimidin-4-amine], the Kd in assay [1] is less than 0.4 µM. Besides, the IC50 in assay [2] is less than 1 µM; in assay [3] (setting [4]) it was greater than 1 µM.

Regarding `C[C@@H](Nc1nc(Cl)nc2c1CN(C(=O)N1CCOCC1)C2)c1cccc(C(F)F)c1Br` [Example 528, N-[(1R)-1-[2-bromo-3-(difluoromethyl)phenyl]ethyl]-2-chloro-6-(morpholine-4-carbonyl)-5H,6H,7H-pyrrolo[3,4-d]pyrimidin-4-amine], the Kd in assay [1] was greater than 0.4 µM. Moreover, the IC50 in assay [2] is less than 1 µM; in assay [3] (PC-9, 1 h), less than 1 µM.

As for `C[C@@H](Nc1nc(Cl)nc2c1C[N+](=C(N(C)C)N(C)C)C2)c1cccc(C(F)F)c1F` [Example 529, 1-[2-chloro-4-[[(1R)-1-[3-(difluoromethyl)-2-fluoro-phenyl]ethyl]amino]-5,7-dihydropyrrolo[3,4-d]pyrimidin-6-ium-6-ylidene]-N,N,N′,N′-tetramethyl-methanediamine formate], the Kd in assay [1] is less than 0.4 µM. Also, the IC50 was less than 1 µM in assay [2] and greater than 1 µM in assay [3] (PC-9, 1 h).

For the origin of these results see patent US20230096028A1, “BICYCLIC HETEROCYCLYL COMPOUNDS AND USES THEREOF” (Revolution Medicines, Inc., priority 2019, published 2023).
